Numbers after ± are expanded uncertainties.
Assay: not given
Details: 333.15 K; 101.33 kPa; Liquid; Vibrating tube method
With CCCCCCCC[n+]1ccccc1.O=S(=O)([N-]S(=O)(=O)C(F)(F)F)C(F)(F)F [1-octylpyridinium bis((trifluoromethyl)sulfonyl)amide] the mass density was 1296.8 ± 1.7 kg/m3. For CCCCCCCCCC[n+]1ccccc1.O=S(=O)([N-]S(=O)(=O)C(F)(F)F)C(F)(F)F [1-decylpyridinium bis(trifluoromethylsulfonyl)imide], the mass density was 1254.3 ± 1.6 kg/m3. With CCCC[n+]1ccccc1.O=S(=O)([N-]S(=O)(=O)C(F)(F)F)C(F)(F)F [1-butylpyridinium bis[(trifluoromethyl)sulfonyl]imide] the mass density was 1415.1 ± 1.9 kg/m3.

Same assay, conditions: 338.15 K; 101.33 kPa; Liquid; Concentric cylinders viscometry
CCCCCCCCCCCC[n+]1ccccc1.O=S(=O)([N-]S(=O)(=O)C(F)(F)F)C(F)(F)F [1-dodecylpyridinium bis(trifluoromethylsulfonyl)imide] showed a viscosity of 33.59 ± 0.76 mPa·s. With CCCCCCCC[n+]1ccccc1.O=S(=O)([N-]S(=O)(=O)C(F)(F)F)C(F)(F)F [1-octylpyridinium bis((trifluoromethyl)sulfonyl)amide] the viscosity was 22.89 ± 0.52 mPa·s. CCCCCCCCCC[n+]1ccccc1.O=S(=O)([N-]S(=O)(=O)C(F)(F)F)C(F)(F)F [1-decylpyridinium bis(trifluoromethylsulfonyl)imide] showed a viscosity of 27.86 ± 0.63 mPa·s. For CCCC[n+]1ccccc1.O=S(=O)([N-]S(=O)(=O)C(F)(F)F)C(F)(F)F [1-butylpyridinium bis[(trifluoromethyl)sulfonyl]imide], the viscosity was 15.2 ± 0.34 mPa·s.

Same assay, conditions: 338.15 K; 101.33 kPa; Liquid; Vibrating tube method
Work on CCCCCCCCCCCC[n+]1ccccc1.O=S(=O)([N-]S(=O)(=O)C(F)(F)F)C(F)(F)F [1-dodecylpyridinium bis(trifluoromethylsulfonyl)imide] yielded a mass density of 1216 ± 1.6 kg/m3. In the case of CCCCCCCC[n+]1ccccc1.O=S(=O)([N-]S(=O)(=O)C(F)(F)F)C(F)(F)F [1-octylpyridinium bis((trifluoromethyl)sulfonyl)amide], the mass density is reported as 1292.6 ± 1.7 kg/m3. For CCCCCCCCCC[n+]1ccccc1.O=S(=O)([N-]S(=O)(=O)C(F)(F)F)C(F)(F)F [1-decylpyridinium bis(trifluoromethylsulfonyl)imide], the mass density was 1250.2 ± 1.6 kg/m3. With CCCC[n+]1ccccc1.O=S(=O)([N-]S(=O)(=O)C(F)(F)F)C(F)(F)F [1-butylpyridinium bis[(trifluoromethyl)sulfonyl]imide] the mass density was 1410.5 ± 1.9 kg/m3.

Same assay, conditions: 343.15 K; 101.33 kPa; Liquid; Concentric cylinders viscometry
With CCCCCCCCCCCC[n+]1ccccc1.O=S(=O)([N-]S(=O)(=O)C(F)(F)F)C(F)(F)F [1-dodecylpyridinium bis(trifluoromethylsulfonyl)imide] the viscosity was 28.47 ± 0.64 mPa·s. In the case of CCCCCCCC[n+]1ccccc1.O=S(=O)([N-]S(=O)(=O)C(F)(F)F)C(F)(F)F [1-octylpyridinium bis((trifluoromethyl)sulfonyl)amide], the viscosity is reported as 19.73 ± 0.45 mPa·s. In the case of CCCCCCCCCC[n+]1ccccc1.O=S(=O)([N-]S(=O)(=O)C(F)(F)F)C(F)(F)F [1-decylpyridinium bis(trifluoromethylsulfonyl)imide], the viscosity is reported as 23.81 ± 0.54 mPa·s. In the case of CCCC[n+]1ccccc1.O=S(=O)([N-]S(=O)(=O)C(F)(F)F)C(F)(F)F [1-butylpyridinium bis[(trifluoromethyl)sulfonyl]imide], the viscosity is reported as 13.39 ± 0.3 mPa·s.

Same assay, conditions: 343.15 K; 101.33 kPa; Liquid; Vibrating tube method
With CCCCCCCCCCCC[n+]1ccccc1.O=S(=O)([N-]S(=O)(=O)C(F)(F)F)C(F)(F)F [1-dodecylpyridinium bis(trifluoromethylsulfonyl)imide] the mass density was 1212 ± 1.6 kg/m3. CCCCCCCC[n+]1ccccc1.O=S(=O)([N-]S(=O)(=O)C(F)(F)F)C(F)(F)F [1-octylpyridinium bis((trifluoromethyl)sulfonyl)amide] gave a mass density of 1288.3 ± 1.7 kg/m3. For CCCCCCCCCC[n+]1ccccc1.O=S(=O)([N-]S(=O)(=O)C(F)(F)F)C(F)(F)F [1-decylpyridinium bis(trifluoromethylsulfonyl)imide], the mass density was 1246.1 ± 1.6 kg/m3. Molecule CCCC[n+]1ccccc1.O=S(=O)([N-]S(=O)(=O)C(F)(F)F)C(F)(F)F [1-butylpyridinium bis[(trifluoromethyl)sulfonyl]imide] has a mass density of 1406 ± 1.9 kg/m3.

Same assay, conditions: 348.15 K; 101.33 kPa; Liquid; Concentric cylinders viscometry
CCCCCCCCCCCC[n+]1ccccc1.O=S(=O)([N-]S(=O)(=O)C(F)(F)F)C(F)(F)F [1-dodecylpyridinium bis(trifluoromethylsulfonyl)imide] gave a viscosity of 24.36 ± 0.55 mPa·s. Work on CCCCCCCC[n+]1ccccc1.O=S(=O)([N-]S(=O)(=O)C(F)(F)F)C(F)(F)F [1-octylpyridinium bis((trifluoromethyl)sulfonyl)amide] yielded a viscosity of 17.15 ± 0.39 mPa·s. Molecule CCCCCCCCCC[n+]1ccccc1.O=S(=O)([N-]S(=O)(=O)C(F)(F)F)C(F)(F)F [1-decylpyridinium bis(trifluoromethylsulfonyl)imide] has a viscosity of 20.54 ± 0.46 mPa·s. CCCC[n+]1ccccc1.O=S(=O)([N-]S(=O)(=O)C(F)(F)F)C(F)(F)F [1-butylpyridinium bis[(trifluoromethyl)sulfonyl]imide] showed a viscosity of 11.87 ± 0.27 mPa·s.

Same assay, conditions: 348.15 K; 101.33 kPa; Liquid; Vibrating tube method
CCCCCCCCCCCC[n+]1ccccc1.O=S(=O)([N-]S(=O)(=O)C(F)(F)F)C(F)(F)F [1-dodecylpyridinium bis(trifluoromethylsulfonyl)imide] showed a mass density of 1208 ± 1.5 kg/m3. Molecule CCCCCCCC[n+]1ccccc1.O=S(=O)([N-]S(=O)(=O)C(F)(F)F)C(F)(F)F [1-octylpyridinium bis((trifluoromethyl)sulfonyl)amide] has a mass density of 1284.1 ± 1.7 kg/m3. In the case of CCCCCCCCCC[n+]1ccccc1.O=S(=O)([N-]S(=O)(=O)C(F)(F)F)C(F)(F)F [1-decylpyridinium bis(trifluoromethylsulfonyl)imide], the mass density is reported as 1242 ± 1.6 kg/m3. CCCC[n+]1ccccc1.O=S(=O)([N-]S(=O)(=O)C(F)(F)F)C(F)(F)F [1-butylpyridinium bis[(trifluoromethyl)sulfonyl]imide] gave a mass density of 1401.5 ± 1.9 kg/m3.

Same assay, conditions: 353.15 K; 101.33 kPa; Liquid; Concentric cylinders viscometry
CCCCCCCCCCCC[n+]1ccccc1.O=S(=O)([N-]S(=O)(=O)C(F)(F)F)C(F)(F)F [1-dodecylpyridinium bis(trifluoromethylsulfonyl)imide] gave a viscosity of 21.03 ± 0.48 mPa·s. Molecule CCCCCCCC[n+]1ccccc1.O=S(=O)([N-]S(=O)(=O)C(F)(F)F)C(F)(F)F [1-octylpyridinium bis((trifluoromethyl)sulfonyl)amide] has a viscosity of 15.02 ± 0.34 mPa·s. CCCCCCCCCC[n+]1ccccc1.O=S(=O)([N-]S(=O)(=O)C(F)(F)F)C(F)(F)F [1-decylpyridinium bis(trifluoromethylsulfonyl)imide] showed a viscosity of 17.85 ± 0.4 mPa·s. CCCC[n+]1ccccc1.O=S(=O)([N-]S(=O)(=O)C(F)(F)F)C(F)(F)F [1-butylpyridinium bis[(trifluoromethyl)sulfonyl]imide] showed a viscosity of 10.59 ± 0.24 mPa·s.

Same assay, conditions: 353.15 K; 101.33 kPa; Liquid; Vibrating tube method
For CCCCCCCCCCCC[n+]1ccccc1.O=S(=O)([N-]S(=O)(=O)C(F)(F)F)C(F)(F)F [1-dodecylpyridinium bis(trifluoromethylsulfonyl)imide], the mass density was 1204 ± 1.5 kg/m3. With CCCCCCCC[n+]1ccccc1.O=S(=O)([N-]S(=O)(=O)C(F)(F)F)C(F)(F)F [1-octylpyridinium bis((trifluoromethyl)sulfonyl)amide] the mass density was 1279.9 ± 1.7 kg/m3. In the case of CCCCCCCCCC[n+]1ccccc1.O=S(=O)([N-]S(=O)(=O)C(F)(F)F)C(F)(F)F [1-decylpyridinium bis(trifluoromethylsulfonyl)imide], the mass density is reported as 1237.9 ± 1.6 kg/m3. Molecule CCCC[n+]1ccccc1.O=S(=O)([N-]S(=O)(=O)C(F)(F)F)C(F)(F)F [1-butylpyridinium bis[(trifluoromethyl)sulfonyl]imide] has a mass density of 1397 ± 1.9 kg/m3.

Assay: refractive index (Na D-line) (dimensionless)
Details: 293.15 K; 101.33 kPa; Liquid; Standard Abbe refractometry
Work on CCCCCCCCCCCC[n+]1ccccc1.O=S(=O)([N-]S(=O)(=O)C(F)(F)F)C(F)(F)F [1-dodecylpyridinium bis(trifluoromethylsulfonyl)imide] yielded a refractive index of 1.45131 ± 0.0006.
